Here are results for 18 compounds from PMC10004157.

As usually defined, the melting point is the temperature, or range, at which the solid turns liquid. On to `C[C@H](CO)Nc1nc(SCc2cccc(F)c2F)nc2cnc(-c3ccco3)cc12` [Compound 17b, (2R)-2-[(2-(2,3-Difluorobenzylmercapto)-6-(2-furanyl)-pyrido[3,4-d]pyrimidine-4-yl)amino]propanol], for which the melting point fell in the range of 163 to 165 °C.
For the compound `C[C@H](CO)Nc1nc(SCc2cccc(F)c2F)nc2cnc(-n3ccnc3)cc12` [Compound 16b, (2R)-2-[(6-Imidazolyl-2-(2,3-difluorobenzylmercapto)-pyrido[3,4-d]pyrimidine-4-yl)amino]propanol], the melting point lay in the range of 245 to 247 °C.
Regarding `CCCCCCSc1nc(N[C@H](C)CO)c2ccncc2n1` [Compound 26e, (2R)-2-[(2-(Hexylmercapto)-pyrido[3,4-d]pyrimidine-4-yl)amino]propanol], the melting point lay within 147 to 149 °C.
Next, `C[C@H](CO)Nc1nc(SCc2cccc(F)c2F)nc2cnc(Cl)cc12` [Compound 16a, (2R)-2-[(6-Chloro-2-(2,3-difluorobenzylmercapto)-pyrido[3,4-d]pyrimidine-4-yl)amino]propanol]: 211 to 213 °C; `C[C@H](CO)Nc1nc(OCc2cccc(F)c2F)nc2cnccc12` [Compound 26b, (2R)-2-[(2-(2,3-Difluorobenzyloxy)-pyrido[3,4-d]pyrimidine-4-yl)amino]propanol]: 167 to 169 °C.
Compound `Cc1ccc(-c2cc3c(N[C@H](C)CO)nc(SCc4cccc(F)c4F)nc3cn2)o1` [Compound 17c, (2R)-2-[(2-(2,3-Difluorobenzylmercapto)-6-(5-methylfuran-2-yl)-pyrido[3,4-d]pyrimidine-4-yl)amino]propanol] came in with a melting point of 162 to 164 °C.
As for `C[C@H](CO)Nc1nc(SCc2cccc(F)c2F)nc2cnc(N)cc12` [Compound 21, (2R)-2-[(6-Amino-2-(2,3-difluorobenzylmercapto)-pyrido[3,4-d]pyrimidine-4-yl)amino]propanol], the melting point lay in the range of 174 to 176 °C.
Compound `OCC(O)CNc1nc(SCc2cccc(F)c2F)nc2cnccc12` (stereo not drawn) [Compound 24c, 3-[(2-(2,3-Difluorobenzylmercapto)-pyrido[3,4-d]pyrimidine-4-yl)amino]propan-1,2-diol] had a melting point of 156 to 158 °C.
As for `OCCOc1nc(SCc2cccc(F)c2F)nc2cnccc12` [Compound 24e, 3-[(2-(2,3-Difluorobenzylmercapto)-pyrido[3,4-d]pyrimidine-4-yl)oxy]ethanol], the melting point lay in the range of 181 to 183 °C.
For the compound `C[C@H](CO)Nc1nc(SCc2cccc(F)c2F)nc2cncc(Cl)c12` [Compound 9, (2R)-2-[(5-Chloro-2-(2,3-difluorobenzylmercapto)-pyrido[3,4-d]pyrimidine-4-yl)amino]propanol], the melting point was 146 to 148 °C.
With `OCCNc1nc(SCc2cccc(F)c2F)nc2cnccc12` [Compound 24d, 3-[(2-(2,3-Difluorobenzylmercapto)-pyrido[3,4-d]pyrimidine-4-yl)amino]ethanol], the melting point lay within 181 to 183 °C.
For the compound `C[C@H](CO)Nc1nc(NCc2cccc(F)c2F)nc2cnccc12` [Compound 26a, (2R)-2-[(2-(2,3-Difluorobenzylamino)-pyrido[3,4-d]pyrimidine-4-yl)amino]propanol], the melting point was 136 to 140 °C.
Consider `C[C@H](CO)Nc1nc(Sc2ccccc2)nc2cnccc12` [Compound 26c, (2R)-2-[(2-(Phenylmercapto)-pyrido[3,4-d]pyrimidine-4-yl)amino]propanol], for which the melting point was 193 to 196 °C.
As to `CC[C@H](CO)Nc1nc(SCc2cccc(F)c2F)nc2cnccc12` [Compound 24a, (2R)-2-[(2-(2,3-Difluorobenzylmercapto)-pyrido[3,4-d]pyrimidine-4-yl)amino]butanol], the melting point is 174 to 176 °C.
The compound `C[C@H](CO)Nc1nc(SCCc2ccccc2)nc2cnccc12` [Compound 26d, (2R)-2-[(2-(Phenylethylmercapto)-pyrido[3,4-d]pyrimidine-4-yl)amino]propanol] had a melting point of 182 to 184 °C.
Next, `C[C@H](CO)Nc1nc(SCc2cccc(F)c2F)nc2cnc(-c3ccccc3)cc12` [Compound 17a, (2R)-2-[(2-(2,3-Difluorobenzylmercapto)-6-phenyl-pyrido[3,4-d]pyrimidine-4-yl)amino]propanol]: 202 to 204 °C.
`CC(C)(CO)Nc1nc(SCc2cccc(F)c2F)nc2cnccc12` [Compound 24b, 2-[(2-(2,3-Difluorobenzylmercapto)-pyrido[3,4-d]pyrimidine-4-yl)amino]-2-methyl-propan-1-ol] gave a melting point of 166 to 168 °C.
Compound `C[C@H](CO)Nc1nc(SCc2cccc(F)c2F)nc2cnc(-c3cccs3)cc12` [Compound 17d, (2R)-2-[(2-(2,3-Difluorobenzylmercapto)-6-(2-thienyl)-pyrido[3,4-d]pyrimidine-4-yl)amino]propanol] came in with a melting point of 176 to 178 °C.
